Results as given in patent publication US9296690B2, “Method for inhibiting differentiation of osteoclast and pharmaceutical composition comprising thereof” (Metacine, Inc., priority 2012, dated 2016).

Columns and labels:
[1] = molecular target: T1, human recombinant sRNAK receptor (Homo sapiens, UniProt Q9Y6Q6); assay: Inhibition activity of RANK receptor binding (protein chip, sRANK ligand); conditions: n=6
T1 construct: human recombinant sRNAK receptor molecule; purchased PeproTech
T1 sequence (Q9Y6Q6 30-212 limits assumed): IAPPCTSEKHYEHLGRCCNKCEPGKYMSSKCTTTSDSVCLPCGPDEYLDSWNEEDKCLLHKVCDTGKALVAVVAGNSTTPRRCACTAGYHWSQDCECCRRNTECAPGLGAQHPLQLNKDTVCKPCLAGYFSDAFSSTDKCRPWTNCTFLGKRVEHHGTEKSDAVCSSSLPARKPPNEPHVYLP
Protocol: After the human recombinant sRNAK receptor molecule (100 μg/ml, PeproTech) was fixed to the protein chip (PeproTech), human recombinant sRANK ligand (10 μg/ml, PeproTech) was treated and incubated for 1 hour. OPG molecule was used as a positive control, and the compound and OPG are simultaneously treated. A comparative analysis was conducted to compare the binding inhibition effect of the compound using OPG as a control. Mouse anti-human sRANK ligand monoclonal antibody coupled with Cy5-fluorescent (1.0 μg/ml, PeproTech) was treated for 30 minutes, and scanning the strength of luminescence by using image analysis scanner and analyzed to the GraphPad Prism 4 software. Out of the above stated compounds, compound 4e and ZA were comparatively analyzed. […] That of the compound 4e was 46.70%.

NF-kappa B = assay: Inhibition of NF-kappa B in RAW264.7 cells; format: cell-based, mouse; conditions: 10 μM, 12 hours, then ALLN and RANKL 30 minutes
Description: It is confirmed that the compound of 4e is suppressed the mechanism of NF-kappa B 2 times more than ZA (FIG. 3)

human integrin αyβ3 = molecular target: T2, human integrin αyβ3 (Homo sapiens, UniProt P05106+P06756); assay: Inhibition activity of osteopontin-integrin binding (protein chip); conditions: n=6
T2 construct: purchased Milipore
Protocol: After the human integrin αyβ3 (100 μg/ml, Milipore) was fixed to the protein chip (PeproTech), the human recombinant OPN (40 μg/ml, PeproTech) molecule coupled with Cy5-fluorescent was reacted for 1 hour. Echistatin molecule (40 μg/ml, Sigma-Aldrich) was used as a positive control. The samples were simultaneously treated to conduct a comparative analysis for the binding inhibitory effect thereof. Finally, the strength of luminescence is scanned by using image analysis scanner and analyzed to the GraphPad Prism 4 software. […] The binding inhibitory activity of compound 4e of the invention was about 3 times higher than that of ZA (n=6)(FIG. 5).

RAW 264.7 cell = assay: Inhibition effect on osteoclast differentiation (RANKL-stimulated RAW 264.7 cells, TRAP stain, osteoclast count); format: cell-based, mouse; conditions: RAW 264.7 + RANKL; for osteoclast differentiation degree (number of cells differentiated to osteoclasts): 7 days, osteoclasts with more than 4 nuclei, two values per concentration, control 51.5
Protocol: RAW 264.7 cell, a mouse macrophage/monocyte cell line which can be differentiated in various forms depends on its surrounding environments and stimuli, is differentiated to multinucleated osteoclast by the stimulus of RANKL (100 ng/ml). Inhibition effect of each compound on osteoclast differentiation was analyzed by comparing the degree of osteoclast differentiation when RAW 264.7 cell was treated with RANKL and the subject each compound simultaneously.
Inhibition activities of osteoclast differentiation in respect of compounds 4a, 4b, 4c, 4d, 4e, 4f, 4 g, 4 h, 4i, 4j, 4k, 4l, 4m, 4n, 4o, 7a, 7b, 7c, and 7d were tested. Macrophage/monocyte RAW 264.7 cell was used as a cell and 1.5×10^3 cells were seeded in a 96 well plate. The synthesized compound and zoledronic acid as a control material were dissolved in 10% DMSO aqueous solution and treated to cells according to each concentration […].
After pre-treating each compound for 6 hours and then, treating RANKL, the incubation was carried out for 7 days in a 5% CO2 incubator. To observe osteoclasts well, they were stained by TRAP (tartrate resistance acid phosphatase) stain method. The number of cells differentiated to osteoclasts was counted and then, a comparative analysis was conducted for the degree of each compound's osteoclast differentiation.
Only the osteoclasts containing nucleus number more than 4 were only counted as effective analysis targets in both control and experiment groups (See FIGS. 1 and 2).

T2 sequence (P06756 31-889 limits assumed): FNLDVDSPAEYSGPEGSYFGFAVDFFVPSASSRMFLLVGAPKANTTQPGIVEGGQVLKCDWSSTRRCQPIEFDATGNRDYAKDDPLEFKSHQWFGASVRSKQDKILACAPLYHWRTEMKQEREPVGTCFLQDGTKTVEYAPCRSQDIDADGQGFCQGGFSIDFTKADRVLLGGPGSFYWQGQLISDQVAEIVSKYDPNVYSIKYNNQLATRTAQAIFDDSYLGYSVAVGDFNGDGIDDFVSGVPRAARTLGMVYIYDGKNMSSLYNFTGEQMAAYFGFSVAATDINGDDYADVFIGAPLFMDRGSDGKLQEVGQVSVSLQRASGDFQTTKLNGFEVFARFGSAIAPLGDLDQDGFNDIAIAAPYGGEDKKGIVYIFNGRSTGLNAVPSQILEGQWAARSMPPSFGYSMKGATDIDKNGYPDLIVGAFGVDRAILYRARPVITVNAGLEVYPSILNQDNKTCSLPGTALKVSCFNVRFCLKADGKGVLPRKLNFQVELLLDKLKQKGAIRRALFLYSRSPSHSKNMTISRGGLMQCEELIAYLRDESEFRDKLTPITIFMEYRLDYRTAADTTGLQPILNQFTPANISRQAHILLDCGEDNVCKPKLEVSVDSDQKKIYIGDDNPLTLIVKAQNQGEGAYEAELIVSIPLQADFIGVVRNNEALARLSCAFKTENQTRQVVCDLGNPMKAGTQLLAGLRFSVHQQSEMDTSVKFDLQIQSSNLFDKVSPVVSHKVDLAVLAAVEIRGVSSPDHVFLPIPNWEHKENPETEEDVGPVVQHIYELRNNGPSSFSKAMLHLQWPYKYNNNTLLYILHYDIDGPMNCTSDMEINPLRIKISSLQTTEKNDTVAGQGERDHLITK
T2 sequence (P06756 891-1048 partner limits assumed): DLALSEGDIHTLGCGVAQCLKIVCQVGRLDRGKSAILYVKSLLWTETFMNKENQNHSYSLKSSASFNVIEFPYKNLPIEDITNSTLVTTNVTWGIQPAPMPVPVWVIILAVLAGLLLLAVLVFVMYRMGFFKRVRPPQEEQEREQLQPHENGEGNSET
T2 sequence (P05106 27-788): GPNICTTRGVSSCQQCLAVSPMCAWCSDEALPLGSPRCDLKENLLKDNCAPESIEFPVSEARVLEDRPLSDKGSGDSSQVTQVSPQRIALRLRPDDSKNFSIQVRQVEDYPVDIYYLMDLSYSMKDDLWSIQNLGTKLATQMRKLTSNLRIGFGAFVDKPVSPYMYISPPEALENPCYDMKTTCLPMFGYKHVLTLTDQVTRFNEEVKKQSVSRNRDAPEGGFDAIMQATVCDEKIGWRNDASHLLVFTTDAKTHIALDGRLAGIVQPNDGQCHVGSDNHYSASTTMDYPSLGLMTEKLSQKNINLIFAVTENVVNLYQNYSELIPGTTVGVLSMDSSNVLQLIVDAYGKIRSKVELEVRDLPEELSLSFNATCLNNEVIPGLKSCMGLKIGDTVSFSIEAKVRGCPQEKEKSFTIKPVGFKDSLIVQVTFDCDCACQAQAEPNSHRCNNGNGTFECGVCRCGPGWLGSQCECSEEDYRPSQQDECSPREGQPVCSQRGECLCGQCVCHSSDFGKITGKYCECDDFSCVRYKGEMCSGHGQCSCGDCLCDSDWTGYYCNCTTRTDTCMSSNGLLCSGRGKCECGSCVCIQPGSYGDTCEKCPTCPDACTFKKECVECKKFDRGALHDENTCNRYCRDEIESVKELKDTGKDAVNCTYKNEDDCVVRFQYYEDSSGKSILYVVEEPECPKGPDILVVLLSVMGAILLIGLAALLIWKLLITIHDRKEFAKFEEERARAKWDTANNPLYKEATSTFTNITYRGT

Work on `CC(C)c1cccc(C(C)C)c1N1C(=O)C(c2ccccc2)=C(c2ccccc2)C1=O` [Compound 4a, 1-(2,6-diisopropylphenyl)-3,4-diphenyl-1H-pyrrole-2,5-dione] yielded a melting point of 233 to 234 °C.
For `O=C1C(c2ccccc2)=C(c2ccccc2)C(=O)N1c1ccccc1Cl` [Compound 4c, 1-(2-chlorophenyl)-3,4-dipheyl-1H-pyrrole-2,5-dione], the melting point was 213 to 214 °C.
With `O=C1C(c2ccccc2)=C(c2ccccc2)C(=O)N1c1cccc(Cl)c1` [Compound 4d, 1-(3-chlorophenyl)-3,4-diphenyl-1H-pyrrole-2,5-dione] the melting point was 144 to 145 °C.
In the case of `O=C1C(c2ccccc2)=C(c2ccccc2)C(=O)N1c1ccc(Cl)cc1` [Compound 4e, 1-(4-chlorophenyl)-3,4-diphenyl-1H-pyrrole-2,5-dione], the “binding inhibitory activity upon to RANK receptor” value [1] is reported as 46.70%, the “binding inhibitory activity upon to RANK receptor relative to ZA” value [1] is reported as “about 1.7 times” and the “suppression of the mechanism of NF-kappa B relative to ZA” value (NF-kappa B) is reported as 2 times. For the same compound, the “OPN-integrin binding inhibitory activity relative to ZA” value (human integrin αyβ3) was “about 3 times”, the “binding inhibitory rate with integrin molecule (OPN-integrin)” value (from here on “binding inhibitory rate”) (human integrin αyβ3) was 26.45% and the “inhibition effect on osteoclast differentiation (in words)” value (RAW 264.7 cell) was “more superior inhibition effect on osteoclast differentiation than the control group of zoledronic acid”.
`O=C1C(c2ccccc2)=C(c2ccccc2)C(=O)N1c1ccccc1C(F)(F)F` [Compound 4f, 3,4-diphenyl-1-(2-(trifluoromethyl)phenyl)-1H-pyrrole-2,5-dione] showed a melting point of 152 to 153 °C.
In the case of `O=C1C(c2ccccc2)=C(c2ccccc2)C(=O)N1C1CCCCC1` [Compound 4g, 1-cyclohexyl-3,4-diphenyl-1H-pyrrole-2,5-dione], the melting point is reported as 159 to 160 °C.
`O=C(O)c1cc(N2C(=O)C(c3ccccc3)=C(c3ccccc3)C2=O)ccc1O` [Compound 4i, 5-(2,5-dioxo-3,4-diphenyl-2,5-dihydro-1H-pyrrol-1-yl)-2-hydroxybenzoic acid] gave a melting point of 249 to 250 °C.
For `O=C1C(c2ccccc2)=C(c2ccccc2)C(=O)N1c1cccc(F)c1` [Compound 4k, 1-(3-fluorophenyl)-3,4-diphenyl-1H-pyrrole-2,5-dione], the melting point was 157 to 158 °C, the “osteoclast differentiation degree (number of cells differentiated to osteoclasts)” value (“osteoclast differentiation degree” below) (RAW 264.7 cell; 0.5 μM) was 40 and the “osteoclast differentiation degree” value (RAW 264.7 cell; 1 μM) was 25. The “osteoclast differentiation degree” value (RAW 264.7 cell; 5 μM) was 40 and the “osteoclast differentiation degree” value (RAW 264.7 cell; 10 μM) was 28.
`O=C1C(c2ccccc2)=C(c2ccccc2)C(=O)N1Cc1ccccc1F` [Compound 4n, 1-(2-fluorobenzyl)-3,4-diphenyl-1H-pyrrole-2,5-dione] showed a melting point of 113 to 114 °C.
`O=C1C(c2ccccc2)=C(c2ccccc2)C(=O)N1Cc1cccc(F)c1` [Compound 4o, 1-(3-fluorobenzyl)-3,4-diphenyl-1H-pyrrole-2,5-dione] showed a melting point of 107 to 108 °C.
Work on `O=C1C(c2ccccc2)=C(c2ccccc2)C(=O)N1CCc1ccccc1F` [Compound 4r, 1-(2-fluorophenethyl)-3,4-diphenyl-1H-pyrrole-2,5-dione] yielded a melting point of 111 to 112 °C.
Work on `O=C1C(c2ccccc2)=C(c2ccccc2)C(=O)N1CCc1cccc(F)c1` [Compound 4s, 1-(3-fluorophenethyl)-3,4-diphenyl-1H-pyrrole-2,5-dione] yielded a melting point of 129 to 130 °C.
In the case of `O=C1C(c2ccccc2)=C(c2ccccc2)C(=O)N1CCc1ccc(F)cc1` [Compound 4t, 1-(4-fluorophenethyl)-3,4-diphenyl-1H-pyrrole-2,5-dione], the melting point is reported as 153 to 154 °C.
With `O=P(O)(O)C(O)(Cn1ccnc1)P(=O)(O)O` [ZA, zoledronic acid, reference compound] the “binding inhibitory activity upon to RANK receptor” value [1] was 27.55% and the “binding inhibitory rate” value (human integrin αyβ3) was 8.65%.
In the case of Echistatin [reference compound], the “binding inhibitory rate” value (human integrin αyβ3) is reported as 51.75%.
In the case of “OPG: OPG (osteoprotegrin) molecule, RANKL antagonist, used as a positive control [reference compound]”, the “binding inhibitory activity upon to RANK receptor” value [1] is reported as 83.65%.
